Test systems include Micrococcus luteus; Saccharomyces cerevisiae; Bacillus megaterium; Escherichia coli ML-35; Klebsiella pneumoniae; Pseudomonas aeruginosa; Salmonella typhimurium.
Experiment in all cases: ≥ marks a high value that may be exact or a test limit, other limits are often not marked, values filed in µg/mL are converted to µM
The subject of assay [1] is Mycobacterium tuberculosis H37Rv.
Assay [2] deals with Staphylococcus aureus ATCC 6538.
Assay [3] has as its system Micrococcus luteus ATCC 4698.
The test system of assay [4] is Staphylococcus epidermidis ATCC 12228.
Assay [5] deals with Escherichia coli DH5alpha.
Assay [6] has as its system Pseudomonas aeruginosa ATCC 15692.
For assay [7], the system named is Staphylococcus aureus ATCC 25923.
Assay [8] relates to Escherichia coli ATCC 25922.
The subject of assay [9] is Pseudomonas aeruginosa ATCC 27853.
Assay [10] has as its system Salmonella enterica subsp. enterica serovar Typhimurium ATCC 14028.
For assay [11], the system named is Bacillus subtilis ATCC 23857.
Assay [12] concerns Staphylococcus aureus ATCC 29213.
The subject of assay [13] is Micrococcus luteus ATCC 9341.
The subject of assay [14] is Escherichia coli ATCC 8739.

In brackets after ≈: the same amount, converted by molar mass.

In general, MIC refers to the lowest concentration that inhibits growth of the organism. Read a low MIC as a more susceptible organism.

The compound `CSCC[C@H](NC(=O)CNC(=O)[C@H](CC(C)C)NC(=O)[C@H](CCCN=C(N)N)NC(=O)[C@H](CCCN=C(N)N)NC(=O)[C@H](C)N)C(=O)N[C@@H](CC(N)=O)C(=O)N1CCC[C@H]1C(=O)N[C@@H](Cc1c[nH]c2ccccc12)C(=O)N[C@@H](CCCCN)C(=O)N[C@H](C(=O)N1CCC[C@H]1C(=O)N1CCC[C@H]1C(=O)N[C@@H](C)C(=O)N[C@@H](CCCCN)C(=O)N1CCC[C@H]1C(=O)N[C@@H](CCCCN)C(=O)NCC(=O)N[C@@H](CO)C(=O)N[C@@H](CCCCN)C(=O)O)[C@@H](C)O` [ARRLGMNPWKTPPAKPKGSK] yielded an MIC in assay [1] of at least 90.1 µM.

For the compound `CC(C)C[C@H](NC(=O)[C@H](CC(C)C)NC(=O)[C@H](CCCCN)NC(=O)[C@H](CO)NC(=O)[C@@H](NC(=O)[C@@H](NC(=O)[C@H](CCCCN)NC(=O)[C@H](Cc1ccccc1)NC(=O)[C@H](CC(C)C)NC(=O)[C@H](C)NC(=O)CNC(=O)[C@H](CC(C)C)NC(=O)[C@@H](N)Cc1ccccc1)C(C)C)C(C)C)C(=O)O` [FLGALFKVVSKLL], the MIC was determined as 5.58 µM (≈ 8 µg/mL) in assay [2], 4.18 µM (≈ 6 µg/mL) in [3], 9.76 µM (≈ 14 µg/mL) in [4] and 27.9 µM (≈ 40 µg/mL) in [5].

As to `CC(C)C[C@H](NC(=O)[C@H](CC(C)C)NC(=O)[C@H](CCCCN)NC(=O)[C@H](CO)NC(=O)[C@H](CC(C)C)NC(=O)[C@H](C)NC(=O)[C@H](CCCCN)NC(=O)[C@@H](NC(=O)[C@H](CC(C)C)NC(=O)[C@H](C)NC(=O)CNC(=O)[C@H](CC(C)C)NC(=O)[C@@H](N)Cc1ccccc1)C(C)C)C(=O)O` [FLGALVKALSKLL], the MIC is 5.1 µM (≈ 7 µg/mL) in assay [2], 3.64 µM (≈ 5 µg/mL) in [3], 8.01 µM (≈ 11 µg/mL) in assay [4] and 21.9 µM (≈ 30 µg/mL) in [5].

Consider `CC[C@H](C)[C@H](NC(=O)[C@H](C)NC(=O)[C@H](CC(N)=O)NC(=O)[C@@H](NC(=O)CNC(=O)CNC(=O)[C@H](CCCCN)NC(=O)[C@H](C)NC(=O)[C@H](Cc1ccccc1)NC(=O)[C@H](CCCCN)NC(=O)[C@H](CCCCN)NC(=O)[C@H](C)NC(=O)[C@H](Cc1ccccc1)NC(=O)[C@H](CC(N)=O)NC(=O)[C@H](C)NC(=O)[C@@H](NC(=O)[C@H](CCCCN)NC(=O)[C@H](CO)NC(=O)[C@H](CCSC)NC(=O)[C@H](Cc1ccccc1)NC(=O)CN)C(C)C)C(C)C)C(=O)N[C@@H](CCSC)C(=O)N[C@@H](CC(N)=O)C(=O)N[C@@H](CCC(N)=O)C(=O)N[C@@H](CCCCN)C(=O)O` [GFMSKVANFAKKFAKGGVNAIMNQK], for which the MIC was determined as 0.5 µM (≈ 1.34 µg/mL) with Micrococcus luteus; 4 µM (≈ 10.7 µg/mL) in assay [6]; 8 µM (≈ 21.5 µg/mL) against Saccharomyces cerevisiae; 128 µM (≈ 344 µg/mL) in assay [7]; 1 µM (≈ 2.69 µg/mL) in [8].

For the compound `CC(C)C[C@H](NC(=O)CNC(=O)[C@H](C)NC(=O)[C@@H](NC(=O)[C@H](CC(N)=O)NC(=O)[C@H](CO)NC(=O)[C@H](CC(C)C)NC(=O)[C@H](CC(C)C)NC(=O)CN)C(C)C)C(=O)N[C@@H](CC(C)C)C(=O)N[C@@H](CCCCN)C(=O)N[C@@H](CCC(N)=O)C(=O)N[C@@H](Cc1ccccc1)C(=O)N[C@@H](C)C(=O)N[C@@H](CCCCN)C(=O)NCC(=O)NCC(=O)N[C@H](C(=O)N[C@@H](CC(N)=O)C(=O)N[C@@H](C)C(=O)N[C@H](C(=O)N[C@@H](CC(C)C)C(=O)N[C@@H](CC(N)=O)C(=O)N1CCC[C@H]1C(=O)N[C@@H](CCCCN)C(=O)O)C(C)C)C(C)C` [GLLSNVAGLLKQFAKGGVNAVLNPK], the MIC in the assay with Micrococcus luteus was 1 µM (≈ 2.51 µg/mL); in [6], at least 32 µM; in the assay with Saccharomyces cerevisiae, at least 32 µM; in [7] it was 128 µM (≈ 321 µg/mL); in assay [8], 8 µM (≈ 20.1 µg/mL).

Regarding `CC[C@H](C)[C@H](NC(=O)[C@H](CCCCN)NC(=O)[C@H](CCCCN)NC(=O)[C@H](CC(C)C)NC(=O)[C@H](CCCCN)NC(=O)[C@H](CCC(=O)O)NC(=O)[C@H](CCCCN)NC(=O)[C@@H]1CCCN1C(=O)[C@H](CCCCN)NC(=O)[C@H](CC(N)=O)NC(=O)[C@H](CCCN=C(N)N)NC(=O)[C@@H]1CCCN1C(=O)[C@H](CCCCN)NC(=O)[C@H](CCCN=C(N)N)NC(=O)[C@H](CC(C)C)NC(=O)[C@H](CCCN=C(N)N)NC(=O)[C@H](CCCCN)NC(=O)[C@H](CCCN=C(N)N)NC(=O)[C@H](CC(C)C)NC(=O)CN)C(=O)O` [GLRKRLRKPRNKPKEKLKKI], the MIC was over 64 µM in assay [9]; over 64 µM in assay [10]; over 64 µM in assay [7]; at least 64 µM against Bacillus megaterium; at least 64 µM against Escherichia coli ML-35; over 64 µM in assay [8].

In the case of `CC[C@H](C)[C@H](N)C(=O)N[C@@H](CC(C)C)C(=O)NCC(=O)N[C@H](C(=O)N[C@H](C(=O)N1CCC[C@H]1C(=O)NCC(=O)N[C@@H](CC(C)C)C(=O)N[C@@H](CC(C)C)C(=O)N[C@@H](CCCCN)C(=O)NCC(=O)N[C@@H](CC(C)C)C(N)=O)[C@@H](C)CC)[C@@H](C)O` [ILGTIPGLLKGL], the MIC in [4] was over 256 µM; with Escherichia coli ML-35, at least 256 µM; in assay [11], at least 256 µM; in assay [8], over 256 µM; in assay [12], over 256 µM.

On to `CC[C@H](C)[C@H](N)C(=O)N[C@@H](CC(C)C)C(=O)N1CCC[C@H]1C(=O)N[C@@H](Cc1c[nH]c2ccccc12)C(=O)N[C@@H](CCCCN)C(=O)N[C@@H](Cc1c[nH]c2ccccc12)C(=O)N1CCC[C@H]1C(=O)N[C@@H](Cc1c[nH]c2ccccc12)C(=O)N[C@@H](Cc1c[nH]c2ccccc12)C(=O)N[C@@H](C)C(=O)N[C@@H](Cc1c[nH]c2ccccc12)C(=O)N[C@@H](CCCN=C(N)N)C(=O)N[C@@H](CCCN=C(N)N)C(N)=O` [ILPWKWPWWAWRR], for which the MIC in the assay with Klebsiella pneumoniae was 25 µM (≈ 47 µg/mL); against Pseudomonas aeruginosa, 50 µM (≈ 94 µg/mL); in assay [13] it was 1.6 µM (≈ 3.01 µg/mL); in [5], 15 µM (≈ 28.2 µg/mL); with Salmonella typhimurium it was at least 50 µM.

As for `CC[C@H](C)[C@H](NC(=O)[C@H](CCCCN)NC(=O)[C@@H](N)CCCCN)C(=O)N[C@@H](CC(N)=O)C(=O)N[C@@H](CC(N)=O)C(=O)N[C@H](C(=O)N[C@H](C(=O)N[C@@H](CC(C)C)C(=O)N[C@@H](CO)C(=O)NCC(=O)N[C@@H](CC(C)C)C(=O)N[C@@H](CC(=O)O)C(=O)N[C@@H](CO)C(=O)N[C@H](C(=O)N[C@@H](C)C(=O)N[C@@H](CO)C(=O)N[C@@H](Cc1ccccc1)C(=O)N[C@@H](CO)C(=O)O)C(C)C)[C@@H](C)CC)[C@@H](C)O` [KKINNTILSGLDSVASFS], the MIC is over 135 µM in assay [7] and at least 135 µM in assay [14].

For `CC(C)[C@H](NC(=O)[C@H](CCCCN)NC(=O)[C@H](Cc1ccccc1)NC(=O)[C@@H](NC(=O)[C@@H](NC(=O)[C@@H](N)CCCCN)C(C)C)C(C)C)C(=O)N[C@@H](CCCCN)C(=O)N[C@@H](Cc1ccccc1)C(=O)N[C@@H](CCCCN)C(N)=O` [KVVFKVKFK], the MIC in assay [2] and in assay [13] was 5.57 µM (≈ 6.24 µg/mL) throughout.

On to `CC[C@H](C)[C@H](NC(=O)[C@H](CCCCN)NC(=O)[C@H](Cc1ccc(O)cc1)NC(=O)[C@H](Cc1ccccc1)NC(=O)[C@H](CCC(N)=O)NC(=O)[C@H](CO)NC(=O)[C@H](CCC(=O)O)NC(=O)[C@H](CCCN=C(N)N)NC(=O)[C@H](CC(N)=O)NC(=O)[C@@H]1CCCN1)C(=O)N[C@@H](CC(C)C)C(=O)N[C@@H](CCCN=C(N)N)C(=O)N[C@@H](CCCCN)C(=O)N[C@H](C(=O)N[C@@H](CC(C)C)C(=O)N[C@@H](CO)C(=O)N[C@@H](CCCCN)C(=O)N[C@H](C(=O)N[C@H](C(=O)O)C(C)C)[C@@H](C)CC)[C@@H](C)CC` [PNRESQFYKILRKILSKIV], for which the MIC is 27.4 µM (≈ 64 µg/mL) in [7] and 6.86 µM (≈ 16 µg/mL) in [14].

Turning to `CC[C@H](C)[C@H](NC(=O)[C@H](CCCCN)NC(=O)[C@H](CCCN=C(N)N)NC(=O)CNC(=O)[C@H](CC(C)C)NC(=O)[C@H](CCCN=C(N)N)NC(=O)[C@H](CCCN=C(N)N)NC(=O)[C@H](CC(C)C)NC(=O)CNC(=O)[C@H](CCCN=C(N)N)NC(C)=O)C(=O)N[C@@H](CCCCN)C(=O)N[C@@H](CCCCN)C(=O)NCC(=O)N[C@@H](CC(C)C)C(=O)N[C@@H](CCCCN)C(=O)N[C@@H](CCCCN)C(=O)N[C@@H](Cc1ccc(O)cc1)C(=O)NCC(N)=O` [RGLRRLGRKIKKGLKKYG], the MIC against Klebsiella pneumoniae was 70.7 µM (≈ 153 µg/mL); in assay [9], 17.7 µM (≈ 38.3 µg/mL); in [8], 35.4 µM (≈ 76.7 µg/mL); in assay [14], 17.7 µM (≈ 38.3 µg/mL).

The values are drawn from DBAASP.
